Measurements reported in the NIST ThermoML archive (doi:10.1021/je300017m).
Several values for one entry are separate records, joined by “and”; a condition that tells them apart may be missing. Equal values may be shown once.

How the values were obtained:
[1] = mn = molality of the nth substance listed, in mol/kg; conditions: 101 kPa, Liquid
[2] = 101 kPa, Liquid

CCCCCCCCCCCCn1cc[n+](C)c1.[Br-] [1-dodecyl-3-methylimidazolium bromide] + C[S+](C)[O-]
[1]
Conditions | mass density [kg/m3]
293.15 K, m1 = 0.00397 | 1100.23
293.15 K, m1 = 0.00623 | 1100.24
293.15 K, m1 = 0.00818 | 1100.25
293.15 K, m1 = 0.01037 | 1100.26
293.15 K, m1 = 0.01216 | 1100.26
293.15 K, m1 = 0.01421 | 1100.27
293.15 K, m1 = 0.01656 | 1100.28
293.15 K, m1 = 0.01857 | 1100.29
293.15 K, m1 = 0.02122 | 1100.3
293.15 K, m1 = 0.02403 | 1100.31
303.15 K, m1 = 0.00371 | 1090.4
303.15 K, m1 = 0.00614 | 1090.4
303.15 K, m1 = 0.00792 | 1090.41
303.15 K, m1 = 0.00994 | 1090.42
303.15 K, m1 = 0.0118 | 1090.43
303.15 K, m1 = 0.01399 | 1090.44
303.15 K, m1 = 0.01604 | 1090.45
303.15 K, m1 = 0.01817 | 1090.46
303.15 K, m1 = 0.01986 | 1090.47
303.15 K, m1 = 0.02211 | 1090.48
308.15 K, m1 = 0.00436 | 1085.43
308.15 K, m1 = 0.00683 | 1085.43
308.15 K, m1 = 0.00903 | 1085.45
308.15 K, m1 = 0.01149 | 1085.46
308.15 K, m1 = 0.01349 | 1085.47
308.15 K, m1 = 0.01606 | 1085.48
308.15 K, m1 = 0.01812 | 1085.49
308.15 K, m1 = 0.02147 | 1085.51
308.15 K, m1 = 0.02348 | 1085.52
308.15 K, m1 = 0.02922 | 1085.55
313.15 K, m1 = 0.00453 | 1080.48
313.15 K, m1 = 0.00685 | 1080.5
313.15 K, m1 = 0.00907 | 1080.51
313.15 K, m1 = 0.01123 | 1080.52
313.15 K, m1 = 0.01315 | 1080.53
313.15 K, m1 = 0.01625 | 1080.55
313.15 K, m1 = 0.01812 | 1080.56
313.15 K, m1 = 0.02054 | 1080.57
313.15 K, m1 = 0.02269 | 1080.59

CCCCCCCCn1cc[n+](C)c1.[Br-] [1-methyl-3-octylimidazolium bromide] + C[S+](C)[O-]
[1]
Conditions | mass density [kg/m3]
293.15 K, m1 = 0.00222 | 1100.28
293.15 K, m1 = 0.00411 | 1100.33
293.15 K, m1 = 0.00639 | 1100.39
293.15 K, m1 = 0.00868 | 1100.45
293.15 K, m1 = 0.01098 | 1100.51
293.15 K, m1 = 0.01287 | 1100.56
293.15 K, m1 = 0.0156 | 1100.63
293.15 K, m1 = 0.01754 | 1100.68
293.15 K, m1 = 0.01986 | 1100.74
293.15 K, m1 = 0.0222 | 1100.8
303.15 K, m1 = 0.00254 | 1090.41
303.15 K, m1 = 0.00588 | 1090.5
303.15 K, m1 = 0.00888 | 1090.58
303.15 K, m1 = 0.01151 | 1090.65
303.15 K, m1 = 0.01491 | 1090.74
303.15 K, m1 = 0.01758 | 1090.81
303.15 K, m1 = 0.02064 | 1090.89
303.15 K, m1 = 0.02333 | 1090.96
303.15 K, m1 = 0.02681 | 1091.05
303.15 K, m1 = 0.03031 | 1091.14
308.15 K, m1 = 0.00216 | 1085.43
308.15 K, m1 = 0.00471 | 1085.5
308.15 K, m1 = 0.00692 | 1085.56
308.15 K, m1 = 0.00913 | 1085.62
308.15 K, m1 = 0.01398 | 1085.75
308.15 K, m1 = 0.01624 | 1085.81
308.15 K, m1 = 0.01888 | 1085.88
308.15 K, m1 = 0.02155 | 1085.95
308.15 K, m1 = 0.02348 | 1086
308.15 K, m1 = 0.02616 | 1086.07
313.15 K, m1 = 0.00623 | 1080.57
313.15 K, m1 = 0.01004 | 1080.67
313.15 K, m1 = 0.01351 | 1080.76
313.15 K, m1 = 0.01667 | 1080.84
313.15 K, m1 = 0.01987 | 1080.92
313.15 K, m1 = 0.02275 | 1080.99
313.15 K, m1 = 0.02686 | 1081.09
313.15 K, m1 = 0.02946 | 1081.15
313.15 K, m1 = 0.03287 | 1081.23
313.15 K, m1 = 0.03631 | 1081.31

C[S+](C)[O-] [dimethyl sulfoxide]
[2]
Conditions | mass density
293.15 K | 1100.22 kg/m3
303.15 K | 1090.37 kg/m3 [middle of 4 runs]
308.15 K | 1085.41 kg/m3 and 1085.42 kg/m3
313.15 K | 1080.45 kg/m3 and 1080.43 kg/m3 and 1080.47 kg/m3

C[S+](C)[O-] [dimethyl sulfoxide] + CCCCCCCCCCCCn1cc[n+](C)c1.[Br-]
[1], m2 = 0
Conditions | mass density [kg/m3]
293.15 K | 1100.22
303.15 K | 1090.38
308.15 K | 1085.41
313.15 K | 1080.47

C[S+](C)[O-] [dimethyl sulfoxide] + CCCCCCCCCCn1cc[n+](C)c1.[Br-]
[1], m2 = 0
Conditions | mass density [kg/m3]
293.15 K | 1100.22
303.15 K | 1090.37
308.15 K | 1085.42
313.15 K | 1080.45

C[S+](C)[O-] [dimethyl sulfoxide] + CCCCCCCCn1cc[n+](C)c1.[Br-]
[1], m2 = 0
Conditions | mass density [kg/m3]
293.15 K | 1100.22
303.15 K | 1090.34
308.15 K | 1085.41
313.15 K | 1080.43

C[S+](C)[O-] [dimethyl sulfoxide] + CCCCn1cc[n+](C)c1.[Br-]
[1], m2 = 0
Conditions | mass density [kg/m3]
293.15 K | 1100.22
303.15 K | 1090.36
308.15 K | 1085.41
313.15 K | 1080.45
